Results as given in US8058437B2, “(Pyrroloquinoxalinyl) pyrazinecarbohydrazide-oxalic acid co-crystal for treatment of cancer and other diseases” (Novelix Pharmaceuticals, Inc., priority 2008, dated 2011).
Several values for one entry are separate records, joined by “and”; a condition that tells them apart may be missing. Equal values may be shown once. Entries after “also recorded” stand apart in the source; their conditions may differ. Read-outs that look alike come from different tables or passages of the source.

Legend:
[1] = Pharmacokinetic experiments in rats (IV, oral suspension, oral solution); type: in vivo; settings: rat; for bioavailability: versus mean IV AUCINF, adjusted for dose
Description: The oral suspension formulation was prepared by suspending the test article in 5% PEG-200/95% of a 0.5% solution of methylcellulose. The concentration of the test article was such that a dosing volume of 10 mL/kg delivered the intended dose level. The oral solution formulations of NVX-144 and NVX-412 were prepared by dissolving the test article in 10% by volume dimethyl acetamide, followed by 60% by volume PEG-400, and then adding slowly a solution of 30% Captisol® in 50 mM lactic acid to provide the remaining 30% of volume. The concentration of the test article was such that a dosing volume of 10 mL/kg delivered the intended dose level. The IV formulation of NVX-412 was prepared by dissolving the test article in 10% by volume dimethyl acetamide, followed by 10% by volume PEG-400, and then adding slowly a solution of 10% Captisol® in 50 mM lactic acid to provide the remaining 80% of volume. The concentration of the test articles was such that a dosing volume of 2.5 mL/kg delivered the intended dose level. The doses administered were based on the body weight of each animal taken shortly before dosing. The formulations were used immediately after preparation.
A total of 15 rats were assigned to the study. Five groups of three male rats each comprised the study. Each group was treated once by oral gavage or intravenous injection via the tail vein as specified in Table 3 below.
The animals were fasted overnight prior to dosing and the feed returned approximately 2 hours post-dosing. The dose for each animal was based on the most recent body weight. Oral doses were administered by gavage. Animals received 10 mL/kg per single oral dose. Intravenous doses were administered by tail vein injection. The dose for each animal was based on the most recent body weight. Animals were dosed at 2.5 mL/kg per single intravenous dose.
Blood was collected from the animals in Groups 1 through 5 for pharmacokinetic analysis. Approximately 0.3 mL of blood was collected in potassium EDTA tubes via the orbital plexus at four time points (30 minutes, 1 hour, 4 hours, and 8 hours post-dose) from each rat treated by the oral route, and the blood samples were processed to prepare plasma. Blood was collected at four time points (5 minutes, 30 minutes, 1 hour, and 2 hours post-dose) from each rat treated by the intravenous route, and the blood samples were processed to prepare plasma. Animals were terminated (without necropsy) following their final sample collection.
The whole blood samples were centrifuged (˜1500×g) for a minimum of 10 minutes in a refrigerated centrifuge (set at ˜5° C.). Plasma was prepared and transferred within 30 minutes of blood collection/centrifugation to appropriately labeled tubes. The tubes were then frozen and stored in the dark at ≦−70° C. until analysis. The plasma samples were analyzed by LC-MS/MS to determine the plasma concentrations of NVX-144 and NVX-412. Pharmacokinetic analysis of the plasma concentration data was conducted using non-compartmental analysis with WinNonlin Version 4.1.

[2] = Salt formation experiments / physical characteristics of solid forms; type: physicochemical; settings: suitable for pharmaceutical formulation
Description: Thus, a series of experiments was conducted to assess the preparation of NVX-144 salts of acids other than hydrochloric acid as possible novel compounds better suited to pharmaceutical preparations. […] As expected, NVX-144 base readily formed salts with strong organic acids.
Although oxalic acid co-crystals are rare, Trask et al. have reported a co-crystal of caffeine with oxalic acid (see Trask et al., “Pharmaceutical Cocrystallization: Engineering a Remedy for Caffeine Hydration,” Crystal Growth & Design, 5, 1013-21 (2005)).
Thus NVX-144 would not be expected to form a salt with oxalic acid, a relatively strong dicarboxylic acid.

[3] = male, plasma, po, 20 mg/kg, Group 5, PO-Solution 20 mg/kg, individual animals
[4] = Group 3, PO-Suspension 20 mg/kg, Mean N=2
[5] = Group 3, PO-Suspension 20 mg/kg, individual animals
[6] = Group 5, PO-Solution 20 mg/kg, Mean N=3
[7] = Group 5, PO-Solution 20 mg/kg, individual animals
[8] = IV 5 mg/kg, individual animals, 5 mg/kg

- AUC [1, 3]: 2390 ng·h/mL
- AUC(0-inf) [1, 3]: 2400 ng·h/mL
- Cmax ([1]; male, plasma, po, 20 mg/kg, Group 5, PO-Solution 20 mg/kg, individual animals, read-out: Cmax): 732 ng/mL
- half-life ([1]; male, plasma, po, 20 mg/kg, Group 5, PO-Solution 20 mg/kg, individual animals, read-out: T ½ (converted)): 1.18 h
- Tmax ([1]; male, plasma, po, 20 mg/kg, Group 5, PO-Solution 20 mg/kg, individual animals, read-out: Tmax): 0.5 to 1 h
- bioavailability ([1]; male, plasma, po, 20 mg/kg, Group 5, PO-Solution 20 mg/kg, individual animals, read-out: Bioavailability): 45.7%
- plasma concentration ([1]; Group 3, PO-Suspension 20 mg/kg, 0.5 hr, individual animals): 386.99 ng/mL and 573.34 ng/mL
- plasma concentration ([1]; Group 3, PO-Suspension 20 mg/kg, 1 hr, individual animals): 464.23 ng/mL and 584.12 ng/mL
- plasma concentration ([1]; Group 3, PO-Suspension 20 mg/kg, 4 hr, individual animals): 181.80 ng/mL and 249.34 ng/mL
- AUC % Extrap [1, 4]: 0.68%
- AUCINF [1, 4]: 2306.62 ng·h/mL
- T ½ [1, 4]: 1.15 h
- Cmax ([1]; Group 3, PO-Suspension 20 mg/kg, Mean N=3): 524.61 ng/mL
- AUC % Extrap [1, 5]: 1.00% and 0.36%
- AUCINF [1, 5]: 2200.54 ng·h/mL
- AUCall [1, 5]: 1642.21 ng·h/mL and 2192.52 ng·h/mL
- Cmax [1, 5]: 464.23 ng/mL and 584.12 ng/mL
- T ½ [1, 5]: 1.02 h
- bioavailability [1, 5]: 41.9%
- plasma concentration ([1]; Group 5, PO-Solution 20 mg/kg, 0.5 hr, individual animals): 635.82 ng/mL and 509.37 ng/mL
- plasma concentration ([1]; Group 5, PO-Solution 20 mg/kg, 1 hr, individual animals): 686.88 ng/mL and 489.07 ng/mL
- plasma concentration ([1]; Group 5, PO-Solution 20 mg/kg, 4 hr, individual animals): 171.97 ng/mL and 298.24 ng/mL
- AUC % Extrap [1, 6]: 1.73%
- Cmax [1, 6]: 642.71 ng/mL
- T ½ [1, 6]: 1.37 h
- AUC % Extrap [1, 7]: 0.61% and 0.34% and 4.24%
- AUCINF [1, 7]: 2139.39 ng·h/mL and 2322.68 ng·h/mL
- AUCall [1, 7]: 2132.13 ng·h/mL and 2224.16 ng·h/mL
- Cmax [1, 7]: 686.89 ng/mL and 509.37 ng/mL
- T ½ [1, 7]: 0.98 h and 1.96 h
- Tmax [1, 7]: 0.5 h
- bioavailability [1, 7]: 40.7% and 44.2%
- plasma concentration ([1]; IV 5 mg/kg, 0.083 h, individual animals, 5 mg/kg): 1716.72 ng/mL and 2001.77 ng/mL
- plasma concentration ([1]; IV 5 mg/kg, 0.5 h, individual animals, 5 mg/kg): 481.82 ng/mL and 461.19 ng/mL
- plasma concentration ([1]; IV 5 mg/kg, 1 h, individual animals, 5 mg/kg): 278.84 ng/mL and 253.02 ng/mL
- plasma concentration ([1]; IV 5 mg/kg, 2 h, individual animals, 5 mg/kg): 185.19 ng/mL and 143.93 ng/mL
- AUC % Extrap ([1]; IV 5 mg/kg, Mean of 3): 18.74%
- AUCINF ([1]; IV 5 mg/kg, Mean of 3, 5 mg/kg): 1314.5 ng·h/mL
- Cl ([1]; IV 5 mg/kg, Mean of 3, 5 mg/kg): 63.43 mL/min/kg and 63.4273 mL/min/kg
- Cmax ([1]; IV 5 mg/kg, Mean of 3, 5 mg/kg): 1842.5 ng/mL
- T ½ ([1]; IV 5 mg/kg, Mean of 3, 5 mg/kg): 1.03 h
- Vss ([1]; IV 5 mg/kg, Mean of 3, 5 mg/kg): 3.98512 L/kg
- AUC % Extrap [1, 8]: 18.44% and 22.68% and 15.1%
- AUCINF [1, 8]: 1349.72 ng·h/mL and 1277.84 ng·h/mL
- AUCall [1, 8]: 1043.56 ng·h/mL and 1084.89 ng·h/mL
- Cl [1, 8]: 61.7413 mL/min/kg and 65.2145 mL/min/kg
- Cmax [1, 8]: 1716.7 ng/mL and 2001.8 ng/mL
- T ½ [1, 8]: 1.15 h and 0.93 h
- Vss [1, 8]: 4.55297 L/kg and 3.44635 L/kg
- oral absorption ([1]; administered as a solution or suspension): moderate
- difference in oral absorption between NVX-412 and NVX-144 ([1]; dosed as a solution): no significant difference
- hydrate formation / stability [2]: forms stable mono- and di-hydrates
Compound: O=C(NNc1nc2cc(F)ccc2n2cccc12)c1cnccn1.O=C(O)C(=O)O [NVX-412, N′-(7-fluoropyrrolo[1,2a]quinoxalin-4-yl)pyrazine-2-carbohydrazide oxalic acid co-crystal]
- plasma concentration ([1]; Group 3, PO-Suspension 20 mg/kg, 8 hr, individual animals): 13.07 ng/mL and BLQ (BLQ = Below the Limit of Quantitation <5 ng/mL) and 5.48 ng/mL
- plasma concentration ([1]; Group 5, PO-Solution 20 mg/kg, 8 hr, individual animals): 8.53 ng/mL and 5.14 ng/mL and 34.89 ng/mL
- oral absorption / bioavailability of NVX-412 over NVX-144 free base ([1]; dosed as a suspension): more bioavailable; also recorded: slight improvement
